Experimental findings from patent US7034056B2, “Aryl and biaryl compounds having MCH modulatory activity” (Pharmacopeia Drug Discovery, inc., priority 2001, dated 2006) are described below.

Molecules are shown by their SMILES.

For the first assay, the target named is T1, hMCHR (MCH receptor) (Homo sapiens, UniProt Q99705).
T1 construct: (or internally produced); host or cells: CHO (Chinese hamster ovary) cells, membrane preparation
T1 sequence (Q99705 whole entry): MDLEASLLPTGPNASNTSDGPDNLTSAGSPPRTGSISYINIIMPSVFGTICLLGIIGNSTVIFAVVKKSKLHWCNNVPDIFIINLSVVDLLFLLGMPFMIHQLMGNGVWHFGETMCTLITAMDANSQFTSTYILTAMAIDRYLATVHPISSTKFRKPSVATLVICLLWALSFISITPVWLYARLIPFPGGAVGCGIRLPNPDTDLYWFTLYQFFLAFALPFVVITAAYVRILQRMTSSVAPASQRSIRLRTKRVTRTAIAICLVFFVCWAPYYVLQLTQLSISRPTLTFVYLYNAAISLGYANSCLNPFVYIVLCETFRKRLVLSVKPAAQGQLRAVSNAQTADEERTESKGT
In words: MCH Assay PCOP Protocol ([125I]-MCH SPA binding to hMCHR-CHO membranes).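 For Activity (Ki range): A 0.4–50 nM B 51–500 nM C 501–2500 nM.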 To be noted: [125I]-MCH 0.5 nM, hMCHR-CHO membranes; read-out: Activity (ranges of Ki values). As for the experimental part: A reaction mixture of 10 μg hMCHR-CHO overexpressing membranes (from Receptor Biology, Inc., Beltsville, Md., or internally produced) and 100 μg/well WGA-SPA beads (from Amersham Pharmacia Biotech, Inc., Piscataway, N.J.)/100 μl was prepared in MCHR assay buffer (25 mM HEPES, pH 7.4, 10 mM NaCl, 10 mM MgCl2, 5 mM MnCl2, 0.1% BSA). […] The assay plates were shaken for 5 minutes on a plate shaker, then incubated for 2 hours before cpm/well were determined in a Microbeta Trilux counter (from PerkinElmer Wallac, Inc., Gaithersburg, Md.).
For the molecule `COc1cc(CNCCC(CNC(=O)Nc2ccc(F)c(F)c2)c2ccc(Cl)c(Cl)c2)cc(OC)c1OC` (stereo not drawn) [Example 131], the Ki lay in the range of 51 to 500 nM.
With `N#Cc1cccc(-c2ccc([C@H](CCN3CC[C@@H](NC(=O)c4cc(Cl)cc(Cl)c4)C3)CNC(=O)Nc3cc(Cl)cc(Cl)c3)cc2)c1` [Example 28, (R,S)-3,5-Dichloro-N-(1-{3-(3′-cyano-biphenyl-4-yl)-4-[3-(3,5-dichloro-phenyl)-ureido]-butyl}-pyrrolidin-3-yl)-benzamide], the Ki fell in the range of 501 to 2500 nM.
For the molecule `CNCCC(C(=O)Nc1cc(Cl)cc(Cl)c1)c1ccc(-c2cccc(C#N)c2)cc1` (stereo not drawn) [Example 31, 2-(3′-Cyano-biphenyl-4-yl)-N-(3,5-dichloro-phenyl)-4-methylamino-butyramide], the Ki lay within 501 to 2500 nM.
The same measure, in the same setting: next, `Cc1ccc(C(CCN2CCC(NC(=O)C3CCC3)C2)CNC(=O)Nc2cc(Cl)cc(Cl)c2)cc1` (stereo not drawn) [Example 184]: 51 to 500 nM; `CNCCC(CNC(=O)Nc1cccc(Cl)c1)c1ccc(-c2cccc(C#N)c2)cc1` (stereo not drawn) [Example 45]: 0.4 to 50 nM; `CN(CCC(C(=O)NCc1cc(C(F)(F)F)cc(C(F)(F)F)c1)c1ccc(Cl)c(Cl)c1)C1CCCCC1` (racemic) [Example 30, (R,S)-N-(3,5-Bistrifluoromethyl-benzyl)-4-(cyclohexyl-methyl-amino)-2-(3,4-dichloro-phenyl)-butyramide]: 501 to 2500 nM.
As to `CCNC(=O)N1CCC(NCCC(CNC(=O)Nc2cc(Cl)cc(Cl)c2)c2ccc(Cl)cc2)C1` (stereo not drawn) [Example 177], the Ki was in the range of 51 to 500 nM.
The same measure, in the same setting: under `COCC(=O)NC1CCN(CCC(CNC(=O)Nc2cc(Cl)cc(Cl)c2)c2ccc(Cl)c(Cl)c2)C1` (stereo not drawn) [Example 188] stands 51 to 500 nM; under `N#Cc1cccc(-c2cccc(C(CCNC3CCCC3)CNC(=O)Nc3cc(Cl)cc(Cl)c3)c2)c1` (stereo not drawn) [Example 149], 51 to 500 nM.
Consider `O=C(NCC(CCN1CCC(NC(=O)C2CCC2)C1)c1ccc(Cl)cc1)Nc1cc(Cl)cc(Cl)c1` (stereo not drawn) [Example 178], for which the Ki lay within 51 to 500 nM.
With `O=C(NCC(CCNC1CCCC1)c1ccc(Cl)c(Cl)c1)Nc1ccc(F)c([N+](=O)[O-])c1` (stereo not drawn) [Example 141], the Ki fell in the range of 501 to 2500 nM.
On to `O=C(NCC(CCN1CCC(NC(=O)c2cccs2)C1)c1ccc(Cl)cc1)Nc1cc(Cl)cc(Cl)c1` (stereo not drawn) [Example 183], for which the Ki is 51 to 500 nM.
Take `CNCCC(CNC(=O)Nc1ccccc1)c1ccc(-c2cccc(C#N)c2)cc1` (stereo not drawn) [Example 57]: the Ki was in the range of 0.4 to 50 nM.
The same measure, in the same setting: under `N#Cc1cccc(-c2ccc(C(CCNC3CC3)CNC(=O)Nc3cc(Cl)cc(Cl)c3)cc2)c1` (stereo not drawn) [Example 76] stands 0.4 to 50 nM.
The same measure, in the same setting: next, `CC(CCNC1CCCC1)(CNC(=O)Nc1cc(Cl)cc(Cl)c1)c1ccc(Cl)c(Cl)c1` (stereo not drawn) [Example 107]: 51 to 500 nM; `O=C(NCC(CCN1CCC(NC(=O)C2CCC2)C1)c1ccc(Cl)c(Cl)c1)Nc1cc(Cl)cc(Cl)c1` (stereo not drawn) [Example 181]: 51 to 500 nM.
Same read-out and setting: next, `O=C(NCC(CCN1CCC(NC(=O)c2cccs2)CC1)c1ccc(Cl)cc1)Nc1cc(Cl)cc(Cl)c1` (stereo not drawn) [Example 216]: 501 to 2500 nM; `CN(C)CCCNCCC(CNC(=O)Nc1cc(Cl)cc(Cl)c1)c1cccc(-c2cccc(F)c2)c1` (stereo not drawn) [Example 173]: 501 to 2500 nM; `COCC(=O)NC1CCN(CCC(CNC(=O)Nc2cc(Cl)cc(Cl)c2)c2ccc(Cl)c(Cl)c2)CC1` (stereo not drawn) [Example 195]: 51 to 500 nM.
Turning to `O=C(NCC(CCNC1CCCC1)c1cccc(-c2cccc(Cl)c2)c1)Nc1cc(Cl)cc(Cl)c1` (stereo not drawn) [Example 158], the Ki was 51 to 500 nM.
Still for that read-out and setting: next, `O=C(NCC(CCN1CCC(NC(=O)c2ccno2)C1)c1ccc(Cl)c(Cl)c1)Nc1cc(Cl)cc(Cl)c1` (stereo not drawn) [Example 209]: 501 to 2500 nM; `CN(C)CCC(CNC(=O)Nc1cc(Cl)cc(Cl)c1)c1ccc(-c2ccncc2)cc1` (stereo not drawn) [Example 39]: 51 to 500 nM; `O=C(NCC(CCNC1CCCC1)c1ccc(-c2cc(F)cc(F)c2)cc1)Nc1cc(Cl)cc(Cl)c1` (stereo not drawn) [Example 95]: 0.4 to 50 nM.
Take `COc1cc(CNCCC(CNC(=O)Nc2cc(Cl)cc(Cl)c2)c2ccc(Cl)c(Cl)c2)cc(OC)c1OC` (stereo not drawn) [Example 129]: the Ki was 51 to 500 nM.
The same measure, in the same setting: under `CN(C)CCCNCCC(C)(CNC(=O)Nc1ccc(F)c(F)c1)c1ccc(Cl)c(Cl)c1` (stereo not drawn) [Example 119] stands 501 to 2500 nM; under `N#Cc1cccc(-c2ccc(C(CCNC3CCCC3)CNC(=O)c3cccc(F)c3)cc2)c1` (stereo not drawn) [Example 84], 51 to 500 nM; under `CN(C)CCCNCCC(C)(CNC(=O)Nc1cc(Cl)cc(Cl)c1)c1ccc(Cl)c(Cl)c1` (stereo not drawn) [Example 111], 51 to 500 nM.
The same measure, in the same setting: under `CCOC(=O)N1CCC(NCCC(CNC(=O)Nc2cc(Cl)cc(Cl)c2)c2ccc(C)cc2)CC1` (stereo not drawn) [Example 123] stands 51 to 500 nM.

Staying with this assay, now noted: [125I]-MCH SPA binding, hMCHR-CHO membranes; Ki class ranges; read-out: Activity (range of Ki).
In the case of `N#Cc1cccc(C(=O)NCC(CCN2CCCCC2)c2ccc(Cl)c(Cl)c2)c1` (stereo not drawn) [Example 453], the Ki lay within 501 to 2500 nM.
The same measure, in the same setting: under `CC(Cc1c[nH]c2ccc(F)cc12)NCCC(CNC(=O)Nc1cc(C(F)(F)F)cc(C(F)(F)F)c1)c1ccc(Cl)c(Cl)c1` (stereo not drawn) [Example 439] stands 501 to 2500 nM; under `CCCN(CC)CCC(CNC(=O)Nc1cc(C(F)(F)F)cc(C(F)(F)F)c1)c1ccc(Cl)c(Cl)c1` (stereo not drawn) [Example 424], 501 to 2500 nM; under `O=C(NCC(CCN1CCC(CO)C1)c1ccc(Cl)c(Cl)c1)Nc1cc(C(F)(F)F)cc(C(F)(F)F)c1` (stereo not drawn) [Example 432], 501 to 2500 nM.

The assay is the same for the next values; noted with them: [125I]-MCH binding to hMCHR-CHO membranes; class symbols for ranges of Ki; read-out: Activity (Ki range).
With `O=C(NCC(CCN1CCCC1)c1ccc(Cl)c(Cl)c1)Nc1cccc(C(F)(F)F)c1` (stereo not drawn) [Example 299], the Ki was in the range of 501 to 2500 nM.
Consider `CN1CCCC1CCNCCC(CNC(=O)c1cc(C(F)(F)F)cc(C(F)(F)F)c1)c1ccc(Cl)c(Cl)c1` (stereo not drawn) [Example 413], for which the Ki lay within 501 to 2500 nM.
The same measure, in the same setting: next, `Cc1cc(CNC(=O)C(CCN2CCCC(C)C2)c2ccc(Cl)c(Cl)c2)cc(C(F)(F)F)c1` (stereo not drawn) [Example 391]: 501 to 2500 nM; `O=S(=O)(NCC(CCNCCc1c[nH]c2ccccc12)c1cccc(Cl)c1)c1ccc(Cl)c(Cl)c1` (stereo not drawn) [Example 340]: 501 to 2500 nM; `O=C(NCC(CCN1CCC(N2CCCCC2)CC1)c1ccc(Cl)c(Cl)c1)Nc1ccc(F)c([N+](=O)[O-])c1` (stereo not drawn) [Example 356]: 51 to 500 nM.
Same read-out and setting: under `O=C(NCC(CCN1CCC(N2CCCCC2)CC1)c1ccc(Cl)c(Cl)c1)Nc1cc(C(F)(F)F)ccc1F` (stereo not drawn) [Example 373] stands 501 to 2500 nM.
For the molecule `Cn1cnc(CCNCCC(CNC(=O)Nc2cccc(C(F)(F)F)c2)c2ccc(Cl)c(Cl)c2)c1` (stereo not drawn) [Example 303], the Ki fell in the range of 501 to 2500 nM.
For the molecule `O=S(=O)(NCC(CCN1CCC(c2ccccc2)CC1)c1ccc(Cl)c(Cl)c1)c1ccc(Cl)c(Cl)c1` (stereo not drawn) [Example 348], the Ki lay within 501 to 2500 nM.
Regarding `CN(C)CCCNCCC(CNC(=O)Nc1cc(Cl)cc(Cl)c1)c1ccc(-c2ccc3c(c2)OCO3)cc1` (stereo not drawn) [Example 223], the Ki fell in the range of 0.4 to 50 nM.
For `O=C(NCC(CCNCC1CCCO1)c1ccc(Cl)c(Cl)c1)c1cc(C(F)(F)F)cc(C(F)(F)F)c1` (stereo not drawn) [Example 404], the Ki is 501 to 2500 nM.
The same measure, in the same setting: next, `O=C(NCC(CCN1CCC(N2CCCCC2)CC1)c1ccc(Cl)c(Cl)c1)Nc1cc(Cl)ccc1Cl` (stereo not drawn) [Example 360]: 501 to 2500 nM; `O=C(NCC(CCNC1CCCC1)c1ccc(Cl)c(Cl)c1)Nc1cc(Cl)cc(Cl)c1` (stereo not drawn) [Example 280]: 51 to 500 nM.
On the same count and under the same terms, next, `CN(C)CCCNCCC(CNC(=O)Nc1cc(Cl)cc(Cl)c1)c1ccc(-c2ccc(C(F)(F)F)cc2)cc1` (stereo not drawn) [Example 255]: 501 to 2500 nM; `O=C(NCC(CCNCCc1c[nH]c2ccccc12)c1ccc(Cl)cc1)Nc1cc(C(F)(F)F)cc(C(F)(F)F)c1` (stereo not drawn) [Example 330]: 51 to 500 nM.
As for `O=C(NCC(CCN1CCC(N2CCCCC2)CC1)c1ccc(Cl)c(Cl)c1)Nc1cccc(Cl)c1Cl` (stereo not drawn) [Example 358], the Ki fell in the range of 501 to 2500 nM.
With `N#Cc1cccc(NC(=O)NCC(CCN2CCC(N3CCCCC3)CC2)c2ccc(Cl)c(Cl)c2)c1` (stereo not drawn) [Example 375], the Ki was in the range of 501 to 2500 nM.
On the same count and under the same terms, next, `Cc1ccc(NC(=O)NCC(CCN2CCC(N3CCCCC3)CC2)c2ccc(Cl)c(Cl)c2)cc1F` (stereo not drawn) [Example 361]: 501 to 2500 nM.
Take `O=C(NCC(CCNC1CCC1)c1ccc(Cl)cc1)Nc1cc(Cl)cc(Cl)c1` (stereo not drawn) [Example 273]: the Ki lay within 51 to 500 nM.
With `O=C(NCC(CCNCCc1c[nH]c2ccccc12)c1cccc(F)c1)Nc1cc(C(F)(F)F)cc(C(F)(F)F)c1` (stereo not drawn) [Example 343], the Ki is 501 to 2500 nM.
The same measure, in the same setting: next, `COc1ccc(-c2ccc(C(CCNCCCN(C)C)CNC(=O)Nc3cc(Cl)cc(Cl)c3)cc2)cc1` (stereo not drawn) [Example 240]: 51 to 500 nM; `O=C(NCC(CCNC1CCCC1)c1ccc(-c2ccsc2)cc1)Nc1cc(Cl)cc(Cl)c1` (stereo not drawn) [Example 229]: 51 to 500 nM; `O=C(NCc1cc(C(F)(F)F)cc(C(F)(F)F)c1)C(CCN1CCC(O)CC1)c1ccc(Cl)c(Cl)c1` (stereo not drawn) [Example 389]: 501 to 2500 nM.
On the same count and under the same terms, under `CN(C)CCCNCCC(CNC(=O)Nc1cc(Cl)cc(Cl)c1)c1ccc(-c2ccc(F)c(Cl)c2)cc1` (stereo not drawn) [Example 224] stands 0.4 to 50 nM.
Same read-out and setting: next, `O=S(=O)(NCC(CCNCCc1c[nH]c2ccccc12)c1cccc(F)c1)c1ccc(Cl)c(Cl)c1` (stereo not drawn) [Example 339]: 501 to 2500 nM; `O=C(NCC(CCNC1CCC1)c1ccc(Cl)c(Cl)c1)c1cc(C(F)(F)F)cc(C(F)(F)F)c1` (stereo not drawn) [Example 398]: 501 to 2500 nM.
For `CN(C)CCCNCCC(CNC(=O)Nc1cc(Cl)cc(Cl)c1)c1ccc(-c2ccsc2)cc1` (stereo not drawn) [Example 235], the Ki is 51 to 500 nM.
Same read-out and setting: next, `Cc1ccc(C(CCNC2CCCCC2)CNC(=O)Nc2cc(C(F)(F)F)cc(C(F)(F)F)c2)cc1` (stereo not drawn) [Example 270]: 51 to 500 nM; `O=C(NCC(CCNCCc1c[nH]c2ccccc12)c1ccc(Cl)c(Cl)c1)Nc1cc(C(F)(F)F)cc(C(F)(F)F)c1` (stereo not drawn) [Example 320]: 501 to 2500 nM.

As usually defined, the Ki is a dissociation constant, usually derived from enzyme kinetics or from competition with a known ligand.
